The test system of one series is neutrophilic asthma. Description: Neutrophilic asthma model (LPS/OVA). The class given is in vivo, C57BL/6 mice. To be noted: 10 mg/kg oral daily, 27th to 36th days, compared to solvent control. The method, then:
Sensitization was induced in C57BL/6 mice (7 weeks old, female) by intranasally administering 10 μg of LPS (lipopolysaccharide, Sigma Aldrich, Cat No. L2630) and 75 μg of OVA (Ovalbumin, Sigma Aldrich, Cat No. A5503) diluted in phosphate buffered saline (20 μl in total) on the 0th, 1st, 2nd and 7th days of the experiment. From the 14th day of the experiment, 50 μg of OVA diluted in phosphate buffered saline was challenged by intranasal administration for a total of 8 times at an interval of 2 days a week until the 36th day. The intranasal administration was performed after anesthesia using an isoflurane inhalation anesthetic. In the compound 6 administration group according to an embodiment of the present invention, 10 mg/kg of Compound 6 per mouse was completely dissolved in an ethanol-Cremophor EL mixture corresponding to 7.5% (v/v) of the administered dose, and then, was diluted in phosphate buffered saline to prepare the final ethanol:Cremophor EL:phosphate buffered saline (0.375:0.375:9.25, v/v/v), followed by oral administration with 200 μl of the prepared solution daily for a total of 10 times from the 27th to the 36th days of the experiment.

In series [1] the test system is DSS-induced inflammatory bowel disease. Description: DSS-induced inflammatory bowel disease model: severity index and colon weight:length ratio. The class given is in vivo, C57BL/6 mice. To be noted: 10 mg/kg oral daily, compared to solvent control. The method, then: On day 0 of the experiment, a 2.0% DSS solution prepared by dissolving DSS (Dextran sulfate sodium, MP biomedicals, Cat No. 160110) in […] was given for drinking to C57BL/6 mice (11 weeks old, female, 20±2 g) for 7 days. The 2.0% DSS solution was changed at an interval of 2 days. Sterile distilled water was provided for drinking from the 8th day of the experiment. Body weight and severity index were measured at an interval of 2 days from the 0th day of the experiment in order to confirm the onset of inflammatory bowel disease.
10 mg/kg of Compound 6 per mouse was completely dissolved in an ethanol-Cremophor EL mixture corresponding to 7.5% (v/v) of the administered dose, and then, was diluted in phosphate buffered saline to prepare the final ethanol:Cremophor EL:phosphate buffered saline (0.375:0.375:9.25, v/v/v), followed by oral administration of 200 μl daily for a total of 14 times from the 1st to 14th days of the experiment. An inflammatory bowel disease severity index was visually observed and recorded at an interval of 2 days according to a severity index system classified into 0 to 10 levels.
Inflammatory bowel disease symptoms were evaluated by summing the scores of three items according to the following items (Table 2).

Series [2] is described as follows: pH-metric solubility and logP (SIRIUS T3). The class given is physicochemical. The method, then:
After dissolving Compound 6 in ethanol, the solubility was measured and analyzed using a SIRIUS T3 machine.

Series [3] relates to colitis-associated colorectal cancer (CA-CRC). The series can be described thus: AOM/DSS colorectal cancer model, therapeutic administration. Type of series: in vivo, C57BL/6 mice. Conditions: 10 mg/kg oral, 50th to 63rd days (treatment). As to the method: AOM (Sigma Aldrich, Cat No. A5486) was diluted with physiological saline so as to be a concentration of 10 mg/kg, and then administered intraperitoneally to C57BL/6 mice (8 weeks old, female, 18±2 g) by […] for a total of 3 times at an interval of 7 days (Experiment day 0, 7, 14th). On the 7th day of the experiment, a 1.5% DSS solution prepared by dissolving 1.5% DSS in sterile distilled water was given for drinking to the mice for 7 days. Further, the 1.5% DSS solution was changed at an interval of 2 days. Sterile distilled water was provided for drinking from the 8th day of the experiment. In the compound 6 administration group according to an embodiment of the present invention, 10 mg/kg of Compound 6 per mouse was completely dissolved in an ethanol-Cremophor EL mixture corresponding to 7.5% (v/v) of the administered dose, and then, was diluted in phosphate buffered saline to prepare the final ethanol:Cremophor EL:phosphate buffered saline (0.375:0.375:9.25, v/v/v), followed by oral administration with 200 μl of the prepared solution. In order to confirm the preventive effect, Compound 6 was administered for a total of 14 times from the 7th to the 20th days of the experiment. The effects of Compound 6 according to an embodiment of the present invention on treating colon cancer was confirmed. From the 50th to the 63rd days of the experiment, DSS was administered on the 7th and 14th days after AOM administration to the mice to induce colon cancer, and Compound 6 was administered 14 times from the 50th to the 63rd days. […] That is, it was confirmed that Compound 6 was effective in treating colon cancer (FIGS. 13 and 14). Therefore, it was confirmed that Compound 6 can be used as an effective preventive and therapeutic agent for colon cancer.

For series [4] the test system is unchanged. The series can be described thus: AOM/DSS colorectal cancer model, preventive administration. To be noted: 10 mg/kg oral, 7th to 20th days (prevention). The class given is in vivo, C57BL/6 mice. As to the method: AOM (Sigma Aldrich, Cat No. A5486) was diluted with physiological saline so as to be a concentration of 10 mg/kg, and then administered intraperitoneally to C57BL/6 mice (8 weeks old, female, 18±2 g) by […] for a total of 3 times at an interval of 7 days (Experiment day 0, 7, 14th). On the 7th day of the experiment, a 1.5% DSS solution prepared by dissolving 1.5% DSS in sterile distilled water was given for drinking to the mice for 7 days. Further, the 1.5% DSS solution was changed at an interval of 2 days. Sterile distilled water was provided for drinking from the 8th day of the experiment. In the compound 6 administration group according to an embodiment of the present invention, 10 mg/kg of Compound 6 per mouse was completely dissolved in an ethanol-Cremophor EL mixture corresponding to 7.5% (v/v) of the administered dose, and then, was diluted in phosphate buffered saline to prepare the final ethanol:Cremophor EL:phosphate buffered saline (0.375:0.375:9.25, v/v/v), followed by oral administration with 200 μl of the prepared solution. In order to confirm the preventive effect, Compound 6 was administered for a total of 14 times from the 7th to the 20th days of the experiment.

Usually logP stands for a log measure of how a compound divides between an organic and an aqueous phase. On to `O=C(Cc1c[nH]c2ccc(Cl)cc12)Nc1nc2ccc(N3CCOCC3)cc2s1` [Compound 6, 2-(5-chloro-1H-indol-3-yl)-N-(6-morpholinobenzo[d]thiazol-2-yl)acetamide], for which the “number of neutrophils in the bronchoalveolar lavage (BAL)” value with neutrophilic asthma is on record as “significantly decreased”. In addition, the “inflammatory bowel disease severity index” value in series [1] (10th day) is “statistically significant therapeutic effects”. In addition, the “colon weight:length ratio” value in series [1] (15th day) is recorded as “significantly suppressed”. Besides, the “pH-metric solubility molarity relative to Comparative Example 1” value in series [2] (Compound 6 vs Comparative Example 1) is on record as “about 3.92 times”. Also, in series [2] (pH-metric results, SIRIUS T3), the lipophilicity (logP) came out at 3.04; the “pH-metric solubility, Molarity” value is listed as 14.3 μM; the “pH-metric solubility, Weight/ml” value is 6.104 μg/ml. In series [3] (after 70 days), the body weight entry is “increase in the body weight similar to that of normal mice”. In series [3] (vs control), the number of tumors entry is recorded as “significantly smaller” and the size of tumors result is reported as “significantly smaller”. In series [4] (after 70 days), the body weight entry is “increase in the body weight similar to that of normal mice”. In addition, in series [4] (vs control), the number of tumors entry is “significantly smaller” and the size of tumors result was “significantly smaller”.

Source of the values: patent US12187717B2, “Compound and use thereof in treating autoimmune diseases” (PARENCHYMA BIOTECH INC., priority 2022, dated 2025).
